Laboratory results: patent US20240082191A1, “TOPICAL F[…] PHOSPHOLIPID COMPOUNDS” (EGIS GYÓGYSZERGYÁR ZRT., priority 2021, published 2024)

Columns and labels:
[1] = system: rats with CCI of sciatic nerve; test: Rat model of neuropathy: chronic constriction injury (CCI), paw withdrawal threshold with electronic von Frey device; assay type: in vivo; details: 16.66 mg/kg
Description: Furthermore, based on the article Bennett G J, at al (Pain, A peripheral mononeuropathy in rat that produces disorders of pain sensation like those seen in man. 1988 April; 33(1):87-107) we have developed a method for the examination of the compositions of the present invention. Thus, we have examined the compositions according to the present invention also with a different model for measuring the alleviation of the peripheral neuropathic pain also. Namely, we have carried out examinations on rats using Chronic constriction injury (CCI) model. Three weeks following nerve injury rats were assessed for hind paw mechanical withdrawal thresholds. The paw withdrawal threshold (PWT) was determined with an Electronic von Frey device according to the modified up-down method of Dixon (Efficient analysis of experimental observations, Annu Rev Pharmacol Toxicol. 1980; 20:441-62). […] The method and results are shown in example 3 and on FIG. 9. […]
Briefly, under isoflurane anesthesia small blunt dissection was made into the skin of rat right thigh then three loosely constrictive ligatures were placed around common sciatic nerve (chronic constriction injury CCI). Three weeks following nerve injury rats were assessed for hind paw mechanical withdrawal thresholds. […]

mice, allodynia = details: 2.5% aqueous solution, topical; cited from earlier work
human patient = details: 2.5% aqueous solution, topical; cited from earlier work
[2] = Pharmacokinetic studies of pregabalin (blood levels), oral and topical

## CC(C)C[C@H](CN)CC(=O)O [pregabalin]
[1]
  Reduction of hypersensitivity after oral administration: not able to reduce hypersensitivity
mice, allodynia
  Time of maximum allodynia alleviating effect: 1 h
Human patient
  Duration of reduction of neuropathic pain in a human patient: 6 h
[2]; oral, 16.66 mg/kg
  Blood levels after oral administration: relatively high blood levels
[2]; topical treatment
  Amount of pregabalin entering the bloodstream during topical treatment: very small amounts
